Test results: patent US20250144131A1, “POLYSACCHARIDE COMPOUND WITH A DEFINED MOLECULAR STRUCTURE FOR THE TREATMENT OF PULMONARY FIBROSIS” (SHENZHEN YANDAI INVESTMENT CO., LTD, priority 2023, published 2025)

Experiments:
bone marrow cells = test system: bone marrow cells; design: species or system C57 mice; details: mouse, in vivo, 130 mg/kg
Protocol: (§1) LLC cells in logarithmic growth phase at 1×10^7/mL were inoculated at 0.2 mL into the right axilla of 10 purchased normal male C57 mice. Tumor growth was monitored, and tumor-bearing mice were prepared. Once the tumor volume in tumor-bearing mice exceeded 200 mm^3, the tumor tissue was aseptically harvested to prepare a tissue cell suspension. This was mixed at a 1:1 (V:V) ratio with culture medium to create a tumor tissue homogenate. This homogenate was injected into the right axilla of 60 male C57 mice at 0.2 mL per mouse. When the tumor volume in these tumor-bearing mice exceeded 100 mm^3, mice with well-grown tumors without ulceration were selected and randomized into groups based on tumor volume as follows: model control group, cisplatin group (4 mg/kg), Kanglaite soft capsule group (1,404 mg/kg), cisplatin+Kanglaite soft capsule group (4+1,404 mg/kg), cisplatin+GLP-4 low-dose group (4+130 mg/kg), and cisplatin+GLP-4 high-dose group (4+1,170 mg/kg), with 8 mice per group. Additionally, 8 mice were selected as a normal control group. The cisplatin group received intraperitoneal injections of cisplatin, and the other groups were administered their respective drug solutions by gavage (20 mL/kg) or intraperitoneal injection (10 mL/kg), once daily for 27 consecutive days. After the last dose, blood was collected from the orbital plexus to test blood WBC, RBC, liver and kidney function indicators (ALT, AST, BUN, CRE), and CD3^+, CD4^+, and CD8^+ levels. Bone marrow smears were examined, and spleens, thymuses, and tumors were weighed. Histopathological examinations were conducted on the tumor, spleen, stomach, and kidneys.

LLC tumors = test: Histopathology (H&E) of tumor, spleen, stomach and kidney in LLC-bearing mice; type: in vivo, C57 mice; details: cisplatin 4, Kanglaite 1404, GLP-4 low-dose 130 mg/kg
Excerpt: Histopathology examination: After the last dose, tissues from tumors, spleens, stomachs, and kidneys were collected for H&E staining to observe histopathological changes.

[1] = test system: H22 hepatoma solid tumors; test: Antitumor effect in H22-bearing mice (tumor volume, relative tumor growth inhibition rate, tumor index, tumor growth inhibition rate); type: in vivo, C57 mice
Protocol: Longest and shortest diameters of tumors were measured every three days to calculate tumor volume, and mouse weights were recorded every three days. At the end of the experiment, tumors, spleens, and thymuses were harvested and weighed to calculate tumor, spleen, and thymus indices. […] Where TRTV is the relative tumor volume in the experimental group, and CRTV is the relative tumor volume in the model control group. Relative tumor volume (RTV)=Vt/V0, where Vt is the tumor volume on day t of dosing, and V0 is the tumor volume at the time of grouping. Evaluation criteria: […] Where T represents the average tumor weight in the treatment group, and C represents the average tumor weight in the model control group. Evaluation criteria: […]

[2] = design: species or system C57 mice; details: mouse, in vivo, 130 mg/kg
Protocol: Spleen and thymus organ coefficients: After the last dose, spleen, thymus, and tumor weights are measured, and organ coefficients are calculated. organ coefficient (%)=organ weight/fasting body weight×100%.

[3] = Hematological and liver/kidney function tests (WBC, RBC, ALT, AST, BUN, CRE) in LLC-bearing mice
Protocol: as §1
Hematological tests: Blood samples for routine blood tests (WBC and RBC) and liver and kidney function tests (BUN and CRE) were collected from the orbital plexus after the last dose.

[4] = Mortality and body weight of orthotopic H22-bearing mice; details: Kanglaite soft capsule 1404 mg/kg
Excerpt: (§2) Liver cancer (H22) cells, labeled with Luc fluorescent marker at a concentration of 1×10^7 cells/mL, were initially inoculated into the peritoneal cavity of 8 male C57 mice. After the development of ascites, the ascitic fluid was aseptically extracted, washed with HBSS buffer, centrifuged to discard the supernatant, and stained with Trypan Blue, and cells in the ascitic fluid were counted under a microscope. The cell concentration was adjusted to […] with HBSS buffer and inoculated into the right hepatic region of 51 male C57 mice, at a volume of 10 μL per mouse, to prepare the orthotopic tumor-bearing mice. One week later, the liver tumor formation in mice was detected using a small animal in vivo imaging system. Based on tumor size, the mice were randomized into groups: model control group, cisplatin group (4 mg/kg), Kanglaite soft capsule group (1,404 mg/kg), cisplatin+Kanglaite soft capsule group (4+1,404 mg/kg), cisplatin+GLP-4 low-dose group (4+130 mg/kg), and cisplatin+GLP-4 high-dose group (4+1,170 mg/kg), with 6 mice per group. An additional 6 mice served as the normal control group. The normal control group and the model control group were administered pure water by oral gavage. The chemotherapy group received intraperitoneal injections of cisplatin, and the other groups were administered their respective drug solutions by oral gavage (20 mL/kg) or intraperitoneal injection (10 mL/kg), once daily for 14 consecutive days. After the last dose, blood was collected from the orbital plexus to test blood WBC, RBC, liver and kidney function indicators (ALT, AST, BUN, CRE), and CD3^+/CD4^+, CD3^+/CD8^+ ratios. The spleen, thymus, and tumors were weighed to calculate organ coefficients.
Animal survival and general condition: Weight was recorded weekly, along with any deaths among the animals.

[5] = test system: Liver cancer (H22) cells, orthotopic; test: Tumors in orthotopic H22-bearing mice by small animal in vivo imaging; design: species or system C57 mice; details: for Tumor (in vivo imaging): Kanglaite soft capsule 1404 mg/kg
Excerpt: as §2
Tumor volume measurement: Tumor volume changes were measured weekly using small animal in vivo imaging technology.

Compound: N.N.[Cl][Pt][Cl] [Cisplatin, cisplatin]
- Lymphatic system (bone marrow cells): 15.75 ± 3.44
- Mononuclear cell system (bone marrow cells): 2.88 ± 0.55
- Myeloid/erythroid ratio (bone marrow cells): 3.68 ± 1.68
- Other cells (bone marrow cells): 2.50 ± 2.01
- Red cell system (bone marrow cells): 22.75 ± 5.67
- Tumor histopathology (LLC tumors): large areas of necrosis and hemorrhage were visible at the tumor center, with abundant tumor cells
- Relative tumor growth inhibition rate (compared to model control group) ([1]; D3, cisplatin 3, GLP-4 low-dose 50 mg/kg): 32.9%
- Relative tumor growth inhibition rate (compared to model control group) ([1]; D6, cisplatin 3, GLP-4 low-dose 50 mg/kg): 39.7%
- Relative tumor growth inhibition rate (compared to model control group) ([1]; D9, cisplatin 3, GLP-4 low-dose 50 mg/kg, 50 mg/kg): 66.5^+ %
- Relative tumor growth inhibition rate (compared to model control group) ([1]; D9, cisplatin 3, GLP-4 low-dose 50 mg/kg, listed as cisplatin, 50 mg/kg): 66.5%
- Relative tumor growth inhibition rate (compared to model control group) ([1]; D12, cisplatin 3, GLP-4 low-dose 50 mg/kg, 50 mg/kg): 70.6^+ %
- Relative tumor growth inhibition rate (compared to model control group) ([1]; D12, cisplatin 3, GLP-4 low-dose 50 mg/kg, listed as cisplatin, 50 mg/kg): 70.6%
- Relative tumor growth inhibition rate (compared to model control group) ([1]; D15, cisplatin 3, GLP-4 low-dose 50 mg/kg, 50 mg/kg): 69.1^+ %
- Relative tumor growth inhibition rate (compared to model control group) ([1]; D15, cisplatin 3, GLP-4 low-dose 50 mg/kg, listed as cisplatin, 50 mg/kg): 69.1%
- Relative tumor growth inhibition rate (compared to model control group) ([1]; D18, cisplatin 3, GLP-4 low-dose 50 mg/kg, 50 mg/kg): 81.3^+ %
- Relative tumor growth inhibition rate (compared to model control group) ([1]; D18, cisplatin 3, GLP-4 low-dose 50 mg/kg, listed as cisplatin, 50 mg/kg): 81.3%
- Relative tumor growth inhibition rate (compared to model control group) ([1]; D21, cisplatin 3, GLP-4 low-dose 50 mg/kg, 50 mg/kg): 83.9^+ %
- Relative tumor growth inhibition rate (compared to model control group) ([1]; D21, cisplatin 3, GLP-4 low-dose 50 mg/kg, listed as cisplatin, 50 mg/kg): 83.9%
- Relative tumor growth inhibition rate (compared to model control group) ([1]; D24, cisplatin 3, GLP-4 low-dose 50 mg/kg, 50 mg/kg): 85.3^+ %
- Relative tumor growth inhibition rate (compared to model control group) ([1]; D24, cisplatin 3, GLP-4 low-dose 50 mg/kg, listed as cisplatin, 50 mg/kg): 85.3%
- Relative tumor growth inhibition rate (compared to model control group) ([1]; D27, cisplatin 3, GLP-4 low-dose 50 mg/kg, 50 mg/kg): 84.3^+ %
- Relative tumor growth inhibition rate (compared to model control group) ([1]; D27, cisplatin 3, GLP-4 low-dose 50 mg/kg, listed as cisplatin, 50 mg/kg): 84.3%
- Tumor growth inhibition rate (%) vs. the model control group ([1]; cisplatin group): 88.7%
- Tumor index ([1]; cisplatin group): 2.8 ± 2.1^+ %
- Tumor growth inhibition rate compared to the model control group ([1]; tumor weight, cisplatin 3, GLP-4 low-dose 50 mg/kg): 88.7%
- Spleen coefficient [2]: 0.456 ± 0.102 ^ %
- Thymus coefficient [2]: 0.044 ± 0.020 %
- ALT ([3]; LLC-bearing mice, blood after last dose, cisplatin 4, Kanglaite 1404, GLP-4 low-dose 130 mg/kg): 58.25 U/L
- AST ([3]; mouse, in vivo, 130 mg/kg): 393.25 U/L
- BUN ([3]; mouse, in vivo, 130 mg/kg): 7.91 mmol/L
- CRE ([3]; mouse, in vivo, 130 mg/kg): 20.45 µmol/L
- RBC ([3]; mouse, in vivo, 130 mg/kg): 6.01 ± 10^12/L
- WBC ([3]; mouse, in vivo, 130 mg/kg): 11.09 ± 10^9/L
- Number of deaths ([4]; 6 per group, cisplatin 4 mg/kg): 3
- Number of surviving animals ([4]; 6 per group, cisplatin 4 mg/kg): 3
- Weight ([4]; W0, cisplatin 4 mg/kg): 18.5 ± 1.3 g
- Weight ([4]; W1, cisplatin 4 mg/kg): 16.9 ± 1.8 ^ g
- Weight ([4]; W2, cisplatin 4 mg/kg): 15.1 ± 1.6 g
- Mortality rate ([4]; cisplatin 4 mg/kg): 50.0%
- Tumor (in vivo imaging) ([5]; W0, cisplatin 4 mg/kg): 3756000 P/s/cm^2/sr
- Tumor (in vivo imaging) ([5]; W1, cisplatin 4 mg/kg): 12898500 P/s/cm^2/sr
- Tumor (in vivo imaging) ([5]; W2, cisplatin 4 mg/kg): 11871333 P/s/cm^2/sr
- Tumors compared to the model control group (in vivo imaging) ([5]; cisplatin 4, Kanglaite 1404, GLP-4 low-dose 130 mg/kg): significantly decreased on W2
